Assay results as given in patent publication US6610653B1, “Therapeutic preparation for inhalation” (priority 1994, dated 2003).

Tests used:
[1] = Selection of enhancers: inhaled insulin/enhancer powder in rat model, blood glucose levels; format: in vivo; conditions: for Effect (decrease in blood glucose level): rat, inhalation; for usefulness as enhancer of insulin absorption in the lung: tested as enhancer in the method of the invention, rat model; on Effect (decrease in blood glucose level): key: +: significant decrease in blood glucose level; (+): moderate decrease in blood glucose level; −: no or very small decrease in blood glucose level
Method: Each of the compounds listed in Table III was tested for its ability to enhance uptake of insulin, and thus affect blood glucose levels, in a rat model. Various forms of insulin were employed: recombinant or semisynthetic human or bovine. […] The powder was administered to rats by inhalation, and the blood glucose levels of the rats were subsequently monitored. These levels were compared to the corresponding values obtained from rats which had inhaled insulin formulations without enhancer.

[2] = Insulin combined with sodium caprate in various w/w proportions, in vivo models
Description: In general, it is desirable to keep the ratio of insulin to enhancer as high as possible, within the range that permits fast and efficient enhancement of insulin absorption. This is important in order to minimize the risk of adverse effects, both local and systemic, attributable to the enhancer. The optimal ratio of insulin to enhancer can be ascertained for any given enhancer by testing various proportions in in vivo models such as described herein. For example, insulin was combined with sodium caprate in the following w/w proportions: 50/50, 75/25, 82.5/17.5, and 90/10. […] Other enhancers may have higher or lower optimal concentrations relative to insulin, and each individual enhancer must therefore be separately tested.

[3] = system: CaCo-2 cell monolayer; assay: In vitro CaCo-2 epithelial cell monolayer transport assay; format: in vitro ADME
Description: A standard in vitro assay utilizing an epithelial cell line, CaCo-2 (available through the American Type Culture Collection (ATCC), Rockville, Md., USA), has been developed to assess the ability of various enhancer compounds to promote transport of insulin and other markers across an epithelial cell monolayer, as a model for the epithelial cell layer which functions in the lung to separate the alveolus from the pulmonary blood supply. In this assay, the enhancer and insulin or other marker are dissolved in aqueous solution at various proportions and/or concentrations, and applied to the apical side of the cell monolayer. After 60 min incubation at 37° C. and 95% RH (relative humidity), the amount of the marker on the basolateral side of the cells is determined: for example, by use of a radioactively labelled marker. […] This concentration of sodium caprate (16 mM) was also found to promote absorption of insulin across the cell monolayer. The amount of insulin which passed across the monolayer doubled in the presence of 16 mM sodium caprate, compared to the amount in the absence of any enhancer. It is expected that at higher concentrations of sodium caprate, the permeability of the cells will be further increased; however, the potential cytotoxicity of sodium caprate may prevent the use of substantially higher concentrations of this particular enhancer.

[4] = Enhancer:Insulin:lactose 4:4:92
[5] = Enhancer:Insulin:lactose 2:4:94
[6] = Enhancer:Insulin:lactose 25:75:0

Row | Compound | Effect (decrease in blood glucose level) [1, 4] | usefulness as enhancer of insulin absorption in the lung [1] | also measured
1 | CCCCCCCCOC1O[C@H](CO)[C@@H](O)[C@H](O)[C@H]1O (stereo partly shown) [Octylglucopyranoside] | (+) | some absorption enhancing properties | 
2 | CC(=O)OC1CC2(C)C(CC(O)C3C4(C)CCC(O)C(C)C4CCC32C)C1=C(CCCC(C)C)C(=O)NCCS(=O)(=O)O (stereo not shown) [Sodium taurodihydrofusidate] |  | effectively enhance insulin absorption in the lung | Effect (decrease in blood glucose level) [1, 5]: +
3 | CCCCCCCC(=O)OCC(COP(=O)([O-])OCC[N+](C)(C)C)OC(=O)CCCCCCC (stereo not shown) [Dioctanoylphosphatidylcholine] |  |  | Effect (decrease in blood glucose level) [1, 5]: (+)
4 | CCCCCCCCCCCC(=O)[O-].[Na+] [Sodium laurate] |  | perform well | Effect (decrease in blood glucose level) [1, 6]: (+)
5 | CCCCCCCC(=O)[O-].[Na+] [Sodium caprylate] |  |  | Effect (decrease in blood glucose level) [1, 6]: +
6 | CCCCCCCCCC(=O)OC[C@H](COP(=O)([O-])OCC[N+](C)(C)C)OC(=O)CCCCCCCCC [Didecanoylphospatidylcholine] |  |  | Effect (decrease in blood glucose level) ([1]; Enhancer:Insulin:lactose 4:4:94): −
7 | CCCCCCCC/C=C\CCCCCCCC(=O)[O-].[K+] [Potassium oleate] | + |  | 
8 | C[C@H](CCC(=O)[O-])[C@H]1CC[C@H]2[C@@H]3[C@@H](O)C[C@@H]4C[C@H](O)CC[C@]4(C)[C@H]3CC[C@]12C.[Na+] [Sodium ursodeoxycholate] | + | effectively enhance insulin absorption in the lung | 
9 | Lysine caprate |  | effective | Effect (decrease in blood glucose level) ([1]; Enhancer:Insulin:lactose 35:65:0): +
10 | CCCCCCCCCCCCCC(=O)[O-].[Na+] [Sodium myristate] |  | perform well | Effect (decrease in blood glucose level) ([1]; Enhancer:Insulin:lactose 30:70:0): +
11 | Dimethyl-β-cyclodextrin |  | absorption enhancing effect | Effect (decrease in blood glucose level) ([1]; Enhancer:Insulin:lactose 75:25:0): +
12 | CCCCCCCCCC(=O)[O-].[Na+] [Sodium caprate] | + | perform well | improvement in absorption of insulin ([2]; insulin/sodium caprate w/w 50/50 (50% sodium caprate)): Significant improvement; improvement in absorption of insulin ([2]; insulin/sodium caprate w/w 75/25 (25% sodium caprate)): Significant improvement; improvement in absorption of insulin ([2]; insulin/sodium caprate w/w 82.5/17.5 (17.5% sodium caprate)): intermediate; improvement in absorption of insulin ([2]; insulin/sodium caprate w/w 90/10 (10% sodium caprate)): poor improvement; lowest effective concentration of sodium caprate ([2]; proportion of enhancer relative solely to insulin, 'probably 20-25%'): 15-25%; Effect (decrease in blood glucose level) ([1]; Enhancer:Insulin:lactose 10:90:0): (+); Effect (decrease in blood glucose level) ([1]; Enhancer:Insulin:lactose 17.5:82.5:0): (+); Effect (decrease in blood glucose level) [1, 6]: +; amount of insulin which passed across the monolayer, compared to absence of any enhancer ([3]; 16 mM sodium caprate): doubled; amount of marker (mannitol) which appears on the basolateral side, insulin added ([3]; 60 min at 37° C., 1:3 sodium caprate:insulin by weight, FIG. 8): true even when insulin is added; amount of marker (mannitol) which appears on the basolateral side ([3]; 60 min at 37° C., up to 16 mM sodium caprate, FIG. 7): dependent upon the concentration of enhancer used
13 | C[C@H](CCC(=O)NCC(=O)[O-])[C@H]1CC[C@H]2[C@@H]3[C@H](O)C[C@@H]4C[C@H](O)CC[C@]4(C)[C@H]3C[C@H](O)[C@]12C.[Na+] [Sodium glycocholate] | + | effectively enhance insulin absorption in the lung | 
14 | sodium salt of ethylenediaminetetraacetic acid |  | ineffective | 
15 | Lysophosphatidylcholine | + | effective enhancer | 
16 | CCCCCCCCCC(=O)[O-].[K+] [Potassium caprate] |  | effective | Effect (decrease in blood glucose level) ([1]; Enhancer:Insulin:lactose 27:73:0): +
17 | C[C@H](CCC(=O)NCCS(=O)(=O)O)[C@H]1CC[C@H]2[C@@H]3[C@H](O)C[C@@H]4C[C@H](O)CC[C@]4(C)[C@H]3C[C@H](O)[C@]12C [Sodium taurocholate] | + | effectively enhance insulin absorption in the lung | 
